Ki data for nine compounds are collected here from BindingDB's records for doi:10.1021/bi00839a042 (Michigan State University, 1969).

The target in the assay is T1, Complement C1s subcomponent (Homo sapiens, UniProt P09871).
T1 sequence (P09871 whole entry): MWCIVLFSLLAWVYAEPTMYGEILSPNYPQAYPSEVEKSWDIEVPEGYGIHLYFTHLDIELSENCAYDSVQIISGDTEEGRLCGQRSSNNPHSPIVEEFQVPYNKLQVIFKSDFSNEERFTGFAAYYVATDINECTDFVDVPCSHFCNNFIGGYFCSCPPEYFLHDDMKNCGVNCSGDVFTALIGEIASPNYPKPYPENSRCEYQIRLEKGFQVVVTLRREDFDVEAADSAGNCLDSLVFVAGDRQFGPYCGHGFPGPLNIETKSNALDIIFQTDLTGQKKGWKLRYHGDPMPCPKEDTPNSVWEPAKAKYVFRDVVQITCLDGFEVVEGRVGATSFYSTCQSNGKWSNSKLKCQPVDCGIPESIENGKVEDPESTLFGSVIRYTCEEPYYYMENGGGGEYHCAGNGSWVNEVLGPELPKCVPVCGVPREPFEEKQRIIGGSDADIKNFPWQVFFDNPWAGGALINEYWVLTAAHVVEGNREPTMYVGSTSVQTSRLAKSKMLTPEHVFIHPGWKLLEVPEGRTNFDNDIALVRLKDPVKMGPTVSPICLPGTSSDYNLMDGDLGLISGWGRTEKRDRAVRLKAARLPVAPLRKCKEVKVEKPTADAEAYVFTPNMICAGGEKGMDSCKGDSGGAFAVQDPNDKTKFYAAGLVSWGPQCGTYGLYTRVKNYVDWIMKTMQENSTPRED
Description: Enzymatic Assay. As to conditions: pH 8.05; 25.50 °C. The text has this:
All readings were made in a Hitachi-Coleman ultraviolet-visible 101 spectrophotometer.
On to `CC(C)(C)CNC(=N)N` [2,2'-Dimethyl-1-guanidinopropane], for which the affinity corresponds to a Ki of 13400 µM.
As for `Cc1nc(NC(=N)N)nc2ccccc12` [2-Guanidino-4-methylguinazoline], the figure is 76.5 µM; as for `N=C(N)Nc1ccccc1` [Alpha-Phenylguanidine], 548 µM.
The value for `N=C(N)c1ccccc1` [Benzamidine] was 603 µM; that for `N=C(N)NN` [CAS_2146] was 18100 µM; that for `N=C(N)NCC(=O)O` [Guanidinacetic] was 4370 µM.
For the compound `O=C(CCl)NC(Cc1ccc(O)cc1)C(=O)O` [N-Chloroacetyl-L-tyrosine], the Ki came out at 1120 µM.
The value for `O=C(NC(Cc1ccc(O)cc1)C(=O)O)c1ccccc1` [N-z-L-Tyr] was 370 µM; that for `N=C(N)c1ccc([N+](=O)[O-])cc1` [p-Nitrobenzamidine] was 92500 µM.

By Ki is commonly meant the dissociation constant of the complex between target and ligand, obtained from inhibition or displacement.
